What was measured:
[1] = test system: asthma exacerbation or attack; assay: Clinical trial 1.2: long-term prophylactic efficacy in asthmatic subjects; assay type: in vivo, asthmatic subjects (human); conditions: 10 to 800mg/day orally; for frequency of asthma exacerbation or attack: at least 2 up to 6 months and more, compared with alternative, non-prophylactic therapy; for need for concomitant (bronchodilator) therapy: at least 2 up to 6 months, subjects initially dependent on methyl-xanthine or β₂-agonist therapy
Experimental: (§1) Suitable individual oral dosages, e.g. for COMPOUNDS D2 and K1 in substantially pure form, in such clinical trials comprise, e.g. from ca. 10 to 800mg, e.g. from ca. 50 to 250mg/day, for example at dosages of ca. 25, 50, 200 or 400mg/day orally administered 1x or in divided doses 2 to 3x daily, for example in encapsulated form as hereinafter described in EXAMPLE F. Both acute (0 to 1 hour) and long-term (up to 12 hour) change in lung function is determined post-medication by measurement of lung function parameters, e.g. as follows: • a) FVC; FEV 0.5; FEV 1.0; FEV 3.0; • b) FEV 0.5/FVC; FEV 1/FVC; FEV 3/FVC; • c) PEF; FEF 25-75%; FEF 75-85%; FEF 25%; FEF 50%; FEF 75%; FEF 0.2-1.2 • d) Flow expiratory curve and flow inspiratory curve. Tolerance of medication and possible occurrence of side effects are also reported. In addition to monitoring of lung function, blood eosinophil levels are also monitored and the incidence of activated eosinophils and eosinophil secretory proteins determined. In individual studies, subjects are also subjected to lung lavage and the presence of eosinophils and platelets and their respective secretory products determined before and after exposure to allergen. […] Initial dosaging for e.g. COMPOUND D2 or COMPOUND K1 in substantially pure form is of the order of from 10 to 800mg, e.g. from ca. 50 to 250mg/day, for example at dosages of ca. 25, 50, 200 or 400mg/day administered, e.g. orally once or in divided dosages 2 to 3x daily with subsequent reduction in appropriate cases to a maintenance dosage of 10 to 400mg/day orally. (Suitable dosage forms are e.g. as hereinafter described in EXAMPLE F). During the course of the trial subjects are monitored continually and all relevant parameters recorded including lung function, alterations in the incidence of activated eosinophils or the release of eosinophil products into the blood or bronchial fluids and, in particular, frequency and severity of asthma exacerbation or attack. Additional bronchodilator therapy is provided on the occasion of any such attack. […] During the course of the trial, subjects are monitored continually and all relevant parameters are recorded, including basal lung function, frequency of attack with impairment of lung function, requirement for other medication and frequency of absenteeism attributable to disease status. […] In cases where frequent use of alternative medication is recorded at trial entry, reduced need for concomitant medication is also observed as the trial progresses. […] Recorded symptomatology attributable to condition is also found to undergo reversal during treatment. […]

[2] = Acute toxicity (LD50) in mice; conditions: mouse, in vivo, read-out: LD₅₀
Experimental: (§2) Thus established LD₅₀ values for the COMPOUND D2 in substantially pure form in mice and rats after 14 days p.o. and 7 days i.v. are: in mice, p.o […], i.v. 163 mg/kg; in rats, p.o. 1721 mg/kg, i.v. 50 mg/kg.

[3] = test system: pneumoconiosis or severe bronchitis; assay: Clinical trial 2: utility in pneumoconiosis/bronchitis; assay type: in vivo, subjects (human); conditions: daily oral dosage as under 1.2, in excess of 2 months; for need for concomitant medication: frequent alternative medication at trial entry
Experimental: (§3) Suitable individual oral dosages, e.g. for COMPOUNDS D2 and K1 in substantially pure form, in such clinical trials comprise, e.g. from ca. 10 to 800mg, e.g. from ca. 50 to 250mg/day, for example at dosages of ca. 25, 50, 200 or 400mg/day orally administered 1x or in divided doses 2 to 3x daily, for example in encapsulated form as hereinafter described in EXAMPLE F. Both acute (0 to 1 hour) and long-term (up to 12 hour) change in lung function is determined post-medication by measurement of lung function parameters, e.g. as follows: • a) FVC; FEV 0.5; FEV 1.0; FEV 3.0; • b) FEV 0.5/FVC; FEV 1/FVC; FEV 3/FVC; • c) PEF; FEF 25-75%; FEF 75-85%; FEF 25%; FEF 50%; FEF 75%; FEF 0.2-1.2 • d) Flow expiratory curve and flow inspiratory curve. Tolerance of medication and possible occurrence of side effects are also reported. In addition to monitoring of lung function, blood eosinophil levels are also monitored and the incidence of activated eosinophils and eosinophil secretory proteins determined. In individual studies, subjects are also subjected to lung lavage and the presence of eosinophils and platelets and their respective secretory products determined before and after exposure to allergen. […] Initial dosaging for e.g. COMPOUND D2 or COMPOUND K1 in substantially pure form is of the order of from 10 to 800mg, e.g. from ca. 50 to 250mg/day, for example at dosages of ca. 25, 50, 200 or 400mg/day administered, e.g. orally once or in divided dosages 2 to 3x daily with subsequent reduction in appropriate cases to a maintenance dosage of 10 to 400mg/day orally. (Suitable dosage forms are e.g. as hereinafter described in EXAMPLE F). During the course of the trial subjects are monitored continually and all relevant parameters recorded including lung function, alterations in the incidence of activated eosinophils or the release of eosinophil products into the blood or bronchial fluids and, in particular, frequency and severity of asthma exacerbation or attack. Additional bronchodilator therapy is provided on the occasion of any such attack. […] UTILITY IN PNEUMOCONIOSIS/BRONCHITIS The trial is performed analogously to 1.2 above but with groups of subjects having a history of pneumoconiosis or severe bronchitis, e.g. characterised by events of restricted lung function, for example including difficulty in breathing, wheezing, dyspnea or occasional bronchoconstrictor attack and a record of pneumoconiosis- or bronchitis-related work absenteeism. […] COMPOUND D2 or COMPOUND K1 each in substantially pure form is administered daily at oral dosage rates as set forth under 1.2 above, over periods in excess of 2, preferably in excess of 3, months. During the course of the trial, subjects are monitored continually and all relevant parameters are recorded, including basal lung function, frequency of attack with impairment of lung function, requirement for other medication and frequency of absenteeism attributable to disease status. […] In cases where frequent use of alternative medication is recorded at trial entry, reduced need for concomitant medication is also observed as the trial progresses. Similar results are obtainable employing other COMPOUNDS OF THE INVENTION at the same or equivalent dosage rates. • 3. […] COMPOUND D2 or COMPOUND K1 in substantially pure form is administered orally at a daily dosage rate of from 10 to 400mg, e.g. from cam. 50 to 250mg/day, for example at dosages of ca. 25, 50 or 200mg, e.g. in dosage form as hereinafter described in EXAMPLE F. The trial is continued for a period of up to 2 to 3 months. Blood samples are collected regularly during the course of the trial and assayed for blood-eosinophil count, incidence of activated eosinophils and levels of eosinophil secretory proteins. […] Recorded symptomatology attributable to condition is also found to undergo reversal during treatment. Similar results are obtainable employing other COMPOUNDS OF THE INVENTION at the same or equivalent dosage rates.

[4] = test system: allergen induced eosinophilia; assay: Influence on allergen induced eosinophilia following inhalation of test compound; bronchoalveolar lavage 24 hrs after challenge; assay type: in vivo, Male guinea-pigs (Dunkin-Hartley); conditions: inhalation immediately before challenge, 10.0 to 100mg/kg; lavage 24 hrs following challenge
Experimental: EXAMPLE B: INFLUENCE ON ALLERGEN INDUCED EOSINOPHILIA IN THE GUINEA-PIG FOLLOWING INHALATION
Male guinea-pigs (Dunkin-Hartley) of ca. 300-400g are sensitized employing 10µg amounts of ovalbumin (3x) and applying the technique described in Sanjar et al., Br. J. Pharmacol., 99, 679-686 (1990).
Immediately before challenge COMPOUND OF THE INVENTION, for example COMPOUND D2 or COMPOUND K1 each in substantially pure form, is administered to sensitized animals by inhalation. Administration is effected via a nose-cone either in dry powder with delivery from a brush feed micronising jet mill powder aerosol generator, as described in Bernstein et al. "Aerosols: Science, Technology and Industrial Application of Airborne Particles", Extended Abstract, eds. B.Y.H. Liu. et. al., Elsevier Science, New York, 1984 or in solution from a nebulizer. Antigen challenge or exposure is then carried out, again in accordance with the methods described by Sanjar et. al. loc cit. at p. 680 column 1, employing 10µg ovalbumin in 0.01% solution. Broncheolar lavage is performed 24 hrs following challenge, as follows: • 1. Airway lavage Guinea-pigs are killed by an intraperitoneal injection of pentobarbitone 100mg/kg). The trachea is exposed and cannulated. 10ml of Hank's balanced solution is introduced into the lungs and immediately aspirated by gentle compression of the lung tissue. This procedure is repeated five times. Aspiration fluid is pooled at room temperature in Falcon plastic tubes (60ml). Fluid recovered from the six washes normally exceeds 50ml (85%). The cell suspension is centrifuged (200g for 10 minutes); the supernatant is discarded and the cell pellet resuspended in 1ml of Hank's balanced solution. • 2. Total cell counts 10µl of the 1ml cell suspension is added to 190µl or 90µl (when cell count is low) of Turk's stain (Merck, Darmstadt, Germany) and total cell numbers are determined in a Neubauer (brightline) hemocytometer. The incidence of cells in the 1ml suspension is calculated by multiplying the total cells enumerated in a square of 1mm² by the original dilution viz.: No. of cells counted x dilution x […] = no. of cells/ml. • 3. Differential cell counts The cell suspension is diluted in Hank's balanced solution to obtain a cell concentration of 10⁶ cells per ml. 50µl of this cell suspension is placed in the cytospin (Cytospin 2, Shandon Co.) tube and overlaid by 200µl of buffer. The cytospin is used at 600rpm for 8 minutes. Results for groups of animals receiving COMPOUNDS OF THE INVENTION at varying doses are compared with results for control challenged animals receiving no test substance.

beagle dogs = assay: 26-week oral tolerability in beagle dogs; assay type: in vivo; conditions: up to 200 mg/kg/day P.O for 26 weeks
[5] = test system: allergic, atopic bronchoconstrictor response; assay: Clinical trial 1.1: prophylactic efficacy before allergen challenge in obstructive inflammatory airways disease, e.g. asthma; assay type: in vivo, subjects (human); conditions: oral ca. 10 to 800mg/day, 1 to 2 hours or 1 to 7 days prior to allergen challenge; compared with placebo
Experimental: as §1

[6] = Tolerability in clinical trials; assay type: in vivo, human; conditions: oral dosage rates of 50, 200 and 400mg/day
[7] = test system: elevated eosinophil presence in the blood; assay: Clinical trial 3: utility in hypereosinophilia and eosinophil-related disorders; assay type: in vivo, subjects (human); conditions: orally 10 to 400mg daily, up to 2 to 3 months
Experimental: as §3

[8] = test system: eosinophil accumulation in the airway lumen; assay: Suppression of eosinophil accumulation in allergen (ovalbumin) treated, sensitised animals; airway lavage cell counts; assay type: in vivo, Guinea-pigs (Dunkin-Hartley, male); conditions: for airway eosinophil accumulation compared with untreated controls: 10.0 - 100mg/kg/day as a solution orally for 6 consecutive days prior to challenge, 1 hour prior and seven hours after challenge, lavage 24 hours after challenge
[9] = Acute toxicity (LD50) in rats; conditions: rat, in vivo, read-out: LD₅₀
Experimental: as §2

beagle dog = assay: Pilot toxicological studies in the beagle dog; assay type: in vivo; conditions: 150 and 200 mg/kg p.o. in gelatin capsules over 5 weeks and in olive oil from week 6 to week 8 on

Structure (SMILES)	frequency of asthma exacerbation or attack [1]	need for concomitant (bronchodilator) therapy [1]	basal lung function [3]	frequency of attack and absenteeism [3]	need for concomitant medication [3]	eosinophil counts as compared with control groups [4]	neutrophil counts as compared with control groups [4]	total cell counts as compared with control groups [4]	eosinophilic response [5]	lung function parameters [5]	blood-eosinophil count [7]	incidence of activated eosinophils and eosinophil secretory protein levels [7]	recorded symptomatology attributable to condition [7]	airway eosinophil accumulation compared with untreated controls [8]	further results
COC1=Cc2ccccc2C(=CC(=O)O)c2ccsc21 [COMPOUND D2, [10-Methoxy-4H-benzo[4,5]cyclohepta[1,2-b]thiophen-4-ylidene]-acetic acid]	marked reduction	increasingly reduced need	overall improvement	reduced frequency	reduced need	clear reduction	clear reduction	clear reduction	reduction of eosinophilic response	marked improvement	decreased blood-eosinophil count	decreased incidence	reversal	significant reduction	LD50 at 168 h ([2]; iv, after 7 days): 163 mg/kg; LD50 at 336 h ([2]; po, after 14 days): 1620 mg/kg; tolerability (beagle dogs): generally well tolerated; tolerability / side effects [6]: well tolerated with no significant side effect occurrance; activity in the subject test model (airway eosinophil accumulation) ([8]; dosages of 10 and 50mg/kg/day s.c.): significant activity; LD50 at 168 h ([9]; iv, after 7 days): 50 mg/kg; LD50 at 336 h ([9]; po, after 14 days): 1720 mg/kg
COC1=Cc2ccccc2C(=CC(=O)O)c2cc(Cl)sc21 [COMPOUND K1, [2-Chloro-10-methoxy-4H-benzo[4,5]cyclohepta[1,2-b]thiophen-4-ylidene]-acetic acid]	–	–	overall improvement	reduced frequency	reduced need	clear reduction	clear reduction	clear reduction	–	–	decreased blood-eosinophil count	decreased incidence	reversal	significant reduction	pathological effects (beagle dog): no pathological effects
COC1=Cc2ccccc2C(=CC(=O)O)c2cc(Cl)sc21 [COMPOUND K2, [2-Chloro-10-methoxy-4H-benzo[4,5]cyclohepta[1,2-b]thiophen-4-ylidene]-acetic acid]	marked reduction	increasingly reduced need	–	–	–	–	–	–	reduction of eosinophilic response	marked improvement	–	–	–	–	–

Reference: patent EP0456204A2, “Use of benzocycloheptathiophenecarboxylic acid derivatives in the treatment of eosinophile accumulation/activation and connected diseases” (SANDOZ LTD., priority 1990, dated 1991)
